Experimental data published in US6511961B1, “Cyclic peptides and medicinal use thereof” (Toray Industries, Inc., priority 1997, dated 2003).
Like-named read-outs stand apart in the source and are kept apart here.

Settings: disulfide bond, 20-membered ring, AgOTf/anisole/TFA, then DMSO/HCl, 50% DMSO-1N HCl, 2 steps

CC[C@H](C)[C@@H]1NC(=O)[C@@H](NC(C)=O)CSSC[C@@H](C(=O)O)NC(=O)[C@H](CC(C)C)NC(=O)[C@H](Cc2c[nH]cn2)NC(=O)[C@H](CC(=O)O)NC1=O [AcC*IDHLC*]
ring closure, yield after HPLC (from Ac-Cys(Acm)-Ile-Asp-His-Leu-Cys(Acm)-OH): 68%

CC(C)C[C@@H]1NC(=O)[C@H](Cc2c[nH]cn2)NC(=O)[C@H](CC(=O)O)NC(=O)[C@H](C)NC(=O)[C@@H](N)CSSC[C@@H](C(=O)O)NC1=O [C*ADHLC*]
ring closure, yield after HPLC (from H-Cys(Acm)-Ala-Asp-His-Leu-Cys(Acm)-OH): 59%

CC(C)C[C@@H]1NC(=O)[C@H](Cc2c[nH]cn2)NC(=O)[C@H](CC(=O)O)NC(=O)[C@H](C2CCCCC2)NC(=O)[C@@H](N)CSSC[C@@H](C(=O)O)NC1=O [C*ChgDHLC*]
ring closure, yield after HPLC (from H-Cys(Acm)-Chg-Asp-His-Leu-Cys(Acm)-OH): 68%

CC(C)C[C@@H]1NC(=O)[C@H](Cc2c[nH]cn2)NC(=O)[C@H](CCS(C)(=O)=O)NC(=O)[C@H](C2CCCCC2)NC(=O)[C@@H](N)CSSC[C@@H](C(=O)O)NC1=O [C*ChgMet(O2)HLC*]
ring closure, yield after HPLC (from H-Cys(Acm)-Chg-Met(O2)-His-Leu-Cys(Acm)-OH): 41%

CC[C@H](C)[C@@H]1NC(=O)[C@H](c2ccccc2)NC(=O)[C@H](CCS(C)(=O)=O)NC(=O)[C@H](C2CCCCC2)NC(=O)[C@@H](N)CSSC[C@@H](C(=O)O)NC1=O [C*ChgMet(O2)PhgIC*]
ring closure, yield after HPLC (from H-Cys(Acm)-Chg-Met(O2)-Phg-Ile-Cys(Acm)-OH): 3%

CC(C)C[C@@H]1NC(=O)[C@H](c2ccccc2)NC(=O)[C@H](CCS(C)(=O)=O)NC(=O)[C@H](C2CCCCC2)NC(=O)[C@@H](N)CSSC[C@@H](C(=O)O)NC1=O [C*ChgMet(O2)PhgLC*]
ring closure, yield after HPLC (from H-Cys(Acm)-Chg-Met(O2)-Phg-Leu-Cys(Acm)-OH): 4%

CC(C)C[C@@H]1NC(=O)[C@H](c2ccccc2)NC(=O)[C@H](CCS(C)(=O)=O)NC(=O)[C@H](C2CCCCC2)NC(=O)[C@@H](N)CSSC[C@H](C(=O)O)NC1=O [C*ChgMet(O2)PhgLdC*]
ring closure, yield after HPLC (from H-Cys(Acm)-Chg-Met(O2)-Phg-Leu-dCys(Acm)-OH): 42%

CC(C)C[C@@H]1NC(=O)[C@@H](Cc2ccccc2)NC(=O)[C@H](CCS(C)(=O)=O)NC(=O)[C@H](C2CCCCC2)NC(=O)[C@@H](N)CSSC[C@@H](C(=O)O)NC1=O [C*ChgMet(O2)dFLC*]
ring closure, yield after HPLC (from H-Cys(Acm)-Chg-Met(O2)-dPhe-Leu-Cys(Acm)-OH): 26%

CC(C)C[C@@H]1NC(=O)[C@@H](Cc2c[nH]cn2)NC(=O)[C@H](CCS(C)(=O)=O)NC(=O)[C@H](C2CCCCC2)NC(=O)[C@@H](N)CSSC[C@@H](C(=O)O)NC1=O [C*ChgMet(O2)dHLC*]
ring closure, yield after HPLC (from H-Cys(Acm)-Chg-Met(O2)-dHis-Leu-Cys(Acm)-OH): 45%

CC(C)C[C@@H]1NC(=O)[C@@H](c2ccccc2)NC(=O)[C@H](CCS(C)(=O)=O)NC(=O)[C@H](C2CCCCC2)NC(=O)[C@@H](N)CSSC[C@@H](C(=O)O)NC1=O [C*ChgMet(O2)dPhgLC*]
ring closure, yield after HPLC (from H-Cys(Acm)-Chg-Met(O2)-dPhg-Leu-Cys(Acm)-OH): 8%

CC(C)C[C@@H]1NC(=O)[C@@H](c2ccccc2)NC(=O)[C@H](CCS(C)(=O)=O)NC(=O)[C@H](C2CCCCC2)NC(=O)[C@@H](N)CSSC[C@H](C(=O)O)NC1=O [C*ChgMet(O2)dPhgLdC*]
ring closure, yield after HPLC (from H-Cys(Acm)-Chg-Met(O2)-dPhg-Leu-dCys(Acm)-OH): 40%

CC(C)C[C@@H]1NC(=O)[C@@H](Cc2ccc(O)cc2)NC(=O)[C@H](CCS(C)(=O)=O)NC(=O)[C@H](C2CCCCC2)NC(=O)[C@@H](N)CSSC[C@@H](C(=O)O)NC1=O [C*ChgMet(O2)dYLC*]
ring closure, yield after HPLC (from H-Cys(Acm)-Chg-Met(O2)-dTyr-Leu-Cys(Acm)-OH): 37%

CC[C@H](C)[C@@H]1NC(=O)[C@@H](N)CSSC[C@@H](C(=O)O)NC(=O)[C@H](CC(C)C)NC(=O)[C@H](Cc2c[nH]cn2)NC(=O)[C@H](CC(=O)OC)NC1=O [C*ID(OMe)HLC*]
ring closure, yield after HPLC (from H-Cys(Acm)-Ile-Asp(OMe)-His-Leu-Cys(Acm)-OH): 34%

CC[C@H](C)[C@@H]1NC(=O)[C@@H](N)CSSC[C@@H](C(=O)OC)NC(=O)[C@H](CC(C)C)NC(=O)[C@H](Cc2c[nH]cn2)NC(=O)[C@H](CC(=O)OC)NC1=O [C*ID(OMe)HLC—OMe*]
ring closure, yield after HPLC (from H-Cys(Acm)-Ile-Asp(OMe)-His-Leu-Cys(Acm)-OMe): 34%

CC[C@H](C)[C@@H]1NC(=O)[C@@H](N)CSSC[C@@H](C(=O)O)NC(=O)[C@H](CC(C)C)NC(=O)[C@H](C)NC(=O)[C@H](CC(=O)O)NC1=O [C*IDALC*]
ring closure, yield after HPLC (from H-Cys(Acm)-Ile-Asp-Ala-Leu-Cys(Acm)-OH): 52%

CC[C@H](C)[C@@H]1NC(=O)[C@@H](N)CSSC[C@@H](C(=O)O)NC(=O)[C@H](CC(C)C)NC(=O)[C@H](Cc2ccc3ccccc3c2)NC(=O)[C@H](CC(=O)O)NC1=O [C*IDAla(2-Naph)LC*]
ring closure, yield after HPLC (from H-Cys(Acm)-Ile-Asp-Ala(2-Naph)-Leu-Cys(Acm)-OH): 38%
